Test results taken from patent publication US9732298B2, “Process for the treatment of liquefied hydrocarbon gas using 3-(amino) propane-1,2-diol compounds” (Dow Global Technologies LLC, priority 2012, dated 2017).

Experiments:
[1] = Solubility of tested amine in heptane phase by gas chromatography (toluene internal standard); conditions: GC peak area of tested amine in neat heptane phase; heptane 10 g, toluene 0.1 g, amine 2.5 g, mixed at 20° C. for 1 hour, decanted 15 minutes; average of three injections
Description: A solution of heptane (10 g), toluene (0.1 g) and the tested amine (2.5 g) are mixed at 20° C. for 1 hours. The mixture is decanted for 15 minutes and the neat heptane phase is analyzed by gas chromatography using toluene as internal standard. The injection is repeated three times and peak areas of tested amine are averaged.

[2] = pKa by automated Mettler Toledo titration; assay type: physicochemical; conditions: aqueous amine solution; 50 weight % aqueous amine solutions titrated with 0.5 N hydrochloric acid

SMILES	area counts [1] [counts]	pKa [2]
CN(CCO)CC(O)CO (stereo not drawn) [HEMAPD]	290	8.5
CNCC(O)CO (stereo not drawn) [MAPD]	176	9.7
NCC(O)CO (stereo not drawn) [APD]	0	9.3
